Laboratory results as given in the NIST ThermoML archive (doi:10.1021/acs.jced.7b00773).

Conditions: Liquid; for viscosity: Concentric cylinders viscometry

C=CCn1cc[n+](C)c1.O=S(=O)([N-]S(=O)(=O)C(F)(F)F)C(F)(F)F
100 kPa
Conditions | viscosity [mPa·s]
293.15 K | 40.69
303.15 K | 28.08
313.15 K | 20.31
323.15 K | 15.29
333.15 K | 11.91
343.15 K | 9.52
353.15 K | 7.783
363.15 K | 6.489
373.15 K | 5.498

Conditions | mass density [kg/m3]
293.15 K, 100 kPa, Vibrating tube method | 1506.1
303.15 K, 100 kPa, Vibrating tube method | 1496
312.5 K, 10000 kPa, Bellows volumetry | 1493.8
312.5 K, 20000 kPa, Bellows volumetry | 1501.1
312.5 K, 30000 kPa, Bellows volumetry | 1508
312.5 K, 40000 kPa, Bellows volumetry | 1514.7
312.5 K, 50000 kPa, Bellows volumetry | 1521
312.5 K, 60000 kPa, Bellows volumetry | 1527.1
312.5 K, 70000 kPa, Bellows volumetry | 1533.1
312.5 K, 80000 kPa, Bellows volumetry | 1538.8
312.5 K, 90000 kPa, Bellows volumetry | 1544.2
312.5 K, 100000 kPa, Bellows volumetry | 1549.5
312.5 K, 110000 kPa, Bellows volumetry | 1554.7
312.5 K, 120000 kPa, Bellows volumetry | 1559.7
312.5 K, 130000 kPa, Bellows volumetry | 1564.7
312.5 K, 140000 kPa, Bellows volumetry | 1569.4
312.5 K, 150000 kPa, Bellows volumetry | 1574
312.5 K, 160000 kPa, Bellows volumetry | 1578.6
312.5 K, 170000 kPa, Bellows volumetry | 1583.2
312.5 K, 180000 kPa, Bellows volumetry | 1587.5
312.5 K, 190000 kPa, Bellows volumetry | 1591.8
312.5 K, 200000 kPa, Bellows volumetry | 1596
313.15 K, 100 kPa, Vibrating tube method | 1486
323.15 K, 100 kPa, Vibrating tube method | 1476
332.3 K, 10000 kPa, Bellows volumetry | 1474.5
332.3 K, 20000 kPa, Bellows volumetry | 1482.1
332.3 K, 30000 kPa, Bellows volumetry | 1489.6
332.3 K, 40000 kPa, Bellows volumetry | 1496.7
332.3 K, 50000 kPa, Bellows volumetry | 1503.4
332.3 K, 60000 kPa, Bellows volumetry | 1509.7
332.3 K, 70000 kPa, Bellows volumetry | 1515.8
332.3 K, 80000 kPa, Bellows volumetry | 1521.7
332.3 K, 90000 kPa, Bellows volumetry | 1527.3
332.3 K, 100000 kPa, Bellows volumetry | 1533
332.3 K, 110000 kPa, Bellows volumetry | 1538.5
332.3 K, 120000 kPa, Bellows volumetry | 1543.8
332.3 K, 130000 kPa, Bellows volumetry | 1548.9
332.3 K, 140000 kPa, Bellows volumetry | 1553.7
332.3 K, 150000 kPa, Bellows volumetry | 1558.5
332.3 K, 160000 kPa, Bellows volumetry | 1563.3
332.3 K, 170000 kPa, Bellows volumetry | 1568
332.3 K, 180000 kPa, Bellows volumetry | 1572.5
332.3 K, 190000 kPa, Bellows volumetry | 1576.9
332.3 K, 200000 kPa, Bellows volumetry | 1581.4
333.15 K, 100 kPa, Vibrating tube method | 1466.1
343.15 K, 100 kPa, Vibrating tube method | 1456.3
352.4 K, 10000 kPa, Bellows volumetry | 1455.3
352.4 K, 20000 kPa, Bellows volumetry | 1463.6
352.4 K, 30000 kPa, Bellows volumetry | 1471.5
352.4 K, 40000 kPa, Bellows volumetry | 1479
352.4 K, 50000 kPa, Bellows volumetry | 1486.1
352.4 K, 60000 kPa, Bellows volumetry | 1492.9
352.4 K, 70000 kPa, Bellows volumetry | 1499.3
352.4 K, 80000 kPa, Bellows volumetry | 1505.6
352.4 K, 90000 kPa, Bellows volumetry | 1511.4
352.4 K, 100000 kPa, Bellows volumetry | 1517.2
352.4 K, 110000 kPa, Bellows volumetry | 1522.8
352.4 K, 120000 kPa, Bellows volumetry | 1528.3
352.4 K, 130000 kPa, Bellows volumetry | 1533.5
352.4 K, 140000 kPa, Bellows volumetry | 1538.7
352.4 K, 150000 kPa, Bellows volumetry | 1543.7
352.4 K, 160000 kPa, Bellows volumetry | 1548.5
352.4 K, 170000 kPa, Bellows volumetry | 1553.3
352.4 K, 180000 kPa, Bellows volumetry | 1558
352.4 K, 190000 kPa, Bellows volumetry | 1562.6
352.4 K, 200000 kPa, Bellows volumetry | 1567.1
353.15 K, 100 kPa, Vibrating tube method | 1446.5
363.15 K, 100 kPa, Vibrating tube method | 1436.8
372.5 K, 10000 kPa, Bellows volumetry | 1436.7
372.5 K, 20000 kPa, Bellows volumetry | 1445.3
372.5 K, 30000 kPa, Bellows volumetry | 1453.7
372.5 K, 40000 kPa, Bellows volumetry | 1461.6
372.5 K, 50000 kPa, Bellows volumetry | 1469.1
372.5 K, 60000 kPa, Bellows volumetry | 1476.1
372.5 K, 70000 kPa, Bellows volumetry | 1482.9
372.5 K, 80000 kPa, Bellows volumetry | 1489.5
372.5 K, 90000 kPa, Bellows volumetry | 1495.6
372.5 K, 100000 kPa, Bellows volumetry | 1501.6
372.5 K, 110000 kPa, Bellows volumetry | 1507.5
372.5 K, 120000 kPa, Bellows volumetry | 1513.3
372.5 K, 130000 kPa, Bellows volumetry | 1518.7
372.5 K, 140000 kPa, Bellows volumetry | 1524
372.5 K, 150000 kPa, Bellows volumetry | 1529.2
372.5 K, 160000 kPa, Bellows volumetry | 1534.2
372.5 K, 170000 kPa, Bellows volumetry | 1539.1
372.5 K, 180000 kPa, Bellows volumetry | 1544
372.5 K, 190000 kPa, Bellows volumetry | 1548.6
372.5 K, 200000 kPa, Bellows volumetry | 1553.4
373.15 K, 100 kPa, Vibrating tube method | 1427.3
392.8 K, 10000 kPa, Bellows volumetry | 1417.8
392.8 K, 20000 kPa, Bellows volumetry | 1427.3
392.8 K, 30000 kPa, Bellows volumetry | 1436.1
392.8 K, 40000 kPa, Bellows volumetry | 1444.4
392.8 K, 50000 kPa, Bellows volumetry | 1452.4
392.8 K, 60000 kPa, Bellows volumetry | 1459.8
392.8 K, 70000 kPa, Bellows volumetry | 1466.9
392.8 K, 80000 kPa, Bellows volumetry | 1473.7
392.8 K, 90000 kPa, Bellows volumetry | 1480.1
392.8 K, 100000 kPa, Bellows volumetry | 1486.5
392.8 K, 110000 kPa, Bellows volumetry | 1492.5
392.8 K, 120000 kPa, Bellows volumetry | 1498.5
392.8 K, 130000 kPa, Bellows volumetry | 1504.2
392.8 K, 140000 kPa, Bellows volumetry | 1509.6
392.8 K, 150000 kPa, Bellows volumetry | 1514.9
392.8 K, 160000 kPa, Bellows volumetry | 1520.2
392.8 K, 170000 kPa, Bellows volumetry | 1525.3
392.8 K, 180000 kPa, Bellows volumetry | 1530.2
392.8 K, 190000 kPa, Bellows volumetry | 1535.1
392.8 K, 200000 kPa, Bellows volumetry | 1539.9
413.1 K, 10000 kPa, Bellows volumetry | 1399.4
413.1 K, 20000 kPa, Bellows volumetry | 1409.4
413.1 K, 30000 kPa, Bellows volumetry | 1418.9
413.1 K, 40000 kPa, Bellows volumetry | 1427.7
413.1 K, 50000 kPa, Bellows volumetry | 1436
413.1 K, 60000 kPa, Bellows volumetry | 1443.8
413.1 K, 70000 kPa, Bellows volumetry | 1451.3
413.1 K, 80000 kPa, Bellows volumetry | 1458.4
413.1 K, 90000 kPa, Bellows volumetry | 1465.2
413.1 K, 100000 kPa, Bellows volumetry | 1471.7
413.1 K, 110000 kPa, Bellows volumetry | 1478
413.1 K, 120000 kPa, Bellows volumetry | 1484.2
413.1 K, 130000 kPa, Bellows volumetry | 1490
413.1 K, 140000 kPa, Bellows volumetry | 1495.8
413.1 K, 150000 kPa, Bellows volumetry | 1501.3
413.1 K, 160000 kPa, Bellows volumetry | 1506.6
413.1 K, 170000 kPa, Bellows volumetry | 1511.8
413.1 K, 180000 kPa, Bellows volumetry | 1516.9
413.1 K, 190000 kPa, Bellows volumetry | 1521.8
413.1 K, 200000 kPa, Bellows volumetry | 1526.8
432.7 K, 10000 kPa, Bellows volumetry | 1381.4
432.7 K, 20000 kPa, Bellows volumetry | 1392
432.7 K, 30000 kPa, Bellows volumetry | 1401.8
432.7 K, 40000 kPa, Bellows volumetry | 1411.1
432.7 K, 50000 kPa, Bellows volumetry | 1419.9
432.7 K, 60000 kPa, Bellows volumetry | 1428
432.7 K, 70000 kPa, Bellows volumetry | 1435.9
432.7 K, 80000 kPa, Bellows volumetry | 1443.4
432.7 K, 90000 kPa, Bellows volumetry | 1450.5
432.7 K, 100000 kPa, Bellows volumetry | 1457.2
432.7 K, 110000 kPa, Bellows volumetry | 1463.7
432.7 K, 120000 kPa, Bellows volumetry | 1470.1
432.7 K, 130000 kPa, Bellows volumetry | 1476.1
432.7 K, 140000 kPa, Bellows volumetry | 1482
432.7 K, 150000 kPa, Bellows volumetry | 1487.7
432.7 K, 160000 kPa, Bellows volumetry | 1493.2
432.7 K, 170000 kPa, Bellows volumetry | 1498.6
432.7 K, 180000 kPa, Bellows volumetry | 1503.9
432.7 K, 190000 kPa, Bellows volumetry | 1508.9
432.7 K, 200000 kPa, Bellows volumetry | 1514
